The values that follow come from publication PMC3458734, “Partial thioamide scan on the lipopeptaibiotic trichogin GA IV. Effects on folding and bioactivity” (Beilstein Journal of Organic Chemistry, 2012).

The subject of test [1] is Staphylococcus aureus ATCC 25923. The test can be described thus: Antibacterial activity, disk diffusion Bauer-Kirby method. The following applies: Müller-Hinton medium pH 7.2-7.4. Type of test: cell-based. As to the method: (§1) The antimicrobial activities were assessed on a large set of Gram-positive and Gram-negative bacterial strains. […] Peptide antibacterial activity was tested against Gram-positive and Gram-negative bacteria by the standardized disk diffusion Bauer-Kirby method using the Müller-Hinton culture medium at pH 7.2-7.4 as recommended by the National Committee for Clinical Laboratory Standards. The antibacterial activity assay was performed in a similar way to that described in reference. The activity of peptides was tested against clinical isolates of bacteria and reference bacterial strains: Staphylococcus aureus American Type Culture Collection strains (ATCC) 25923, Streptococcus pyogenes ATCC 19615, Escherichia coli ATCC 25922, Pseudomonas aeruginosa ATCC 27853, Klebsiella pneumoniae ATCC 13883, Salmonella entereditis 13076, and Proteus mirabilis ATCC 10975. The well-known antibiotics bacitracin and tetracyclin (10 μg/disk) were used as controls.

Test [2] deals with Streptococcus pyogenes ATCC 19615. The description is as above. Type of test: cell-based. The following applies: Müller-Hinton medium pH 7.2-7.4. The protocol:
as §1

Turning to [Leu^11-OMe] trichogin GA IV, in test [1], the “antimicrobial activity on Staphylococcus aureus” value is “active”. Besides, in test [2], the “antimicrobial activity on Streptococcus pyrogenes” value was “active”.
